Results on 42 molecules are retold here after patent publication US8916702B2 (priority 2012, dated 2014).

The structures appear in SMILES notation. Where two headings read alike, the source gives them in different places.

The experiment concerns HCV pseudoparticles (genotype 1a HCV E1 and E2 envelope, H77C isolate). Put plainly: microbe, parasite or virus in culture. The experiment is classed as cell-based. The conditions noted are these: Hepatitis C virus.
Setting [1] is: Huh-7, 48 h, read-out: Activity (EC50 class), HCV pseudoparticle infection of Huh7 cells, luciferase 2 days after infection, EC50 expressed as class A/B.
[2] abbreviates: Huh-7, read-out: Activity (EC50 class), HCV pseudoparticles (genotype 1a, H77C) in Huh7 cells, EC50 expressed as class A/B.
[3] abbreviates: Huh-7, 48 h, HCV pseudoparticles (genotype 1a, H77C) in Huh7 cells, average of duplicate, luciferase 2 days after infection.
Setting [4] is: Huh-7, 48 h, read-out: Activity (EC50 class), HCV pseudoparticles, Huh7 cells, luciferase 2 days after infection, average of duplicates.

Turning to `NC(=O)C(=O)NCCC(NC(=O)c1ccc(Nc2nc(NC3(c4ccc(Cl)cc4)CC3)nc(OCC(F)(F)F)n2)cc1)C(=O)O` (stereo in doubt) [Compound 1013, (S)-4-(2-amino-2-oxoacetamido)-2-(4-(4-(1-(4-chlorophenyl)cyclopropylamino)-6-(2,2,2-trifluoroethoxy)-1,3,5-triazin-2-ylamino)benzamido)butanoic acid], the EC50 (usually the midpoint of the concentration-response curve) under setting [1] lay in the range of 0.01 to 10 nM.

In the case of `COC(=O)[C@H](CNC(=O)C(=O)Nc1ccc(Cc2ccncc2)cc1)NC(=O)c1ccc(Nc2nc(NC3(c4ccc(Cl)cc4)CC3)nc(OCC(F)(F)F)n2)cc1` [Compound 3094], the EC50 under setting [2] lay in the range of 0.01 to 10 nM.

On to `CC(C)(CNC(=O)C(=O)Nc1ncc(F)s1)CNC(=O)c1ccc(Nc2nc(NC3(c4ccc(Cl)cc4)CC3)nc(OCC(F)(F)F)n2)cc1` [Compound 3239], for which the EC50 under setting [2] was 0.01 to 10 nM.

On to `O=C(NC/C(=N/C(=O)c1ccc(Nc2nc(NC3(c4ccc(Cl)cc4)CC3)nc(OCC(F)(F)F)n2)cc1)C(=O)O)C(=O)Nc1ccc(Cc2ccncc2)cc1` [Compound 3162], for which the EC50 under setting [2] lay within 0.01 to 10 nM.

For `CC(C)(CNC(=O)C(=O)Nc1ccccc1C(=O)c1ccccc1)CNC(=O)c1ccc(Nc2nc(NC3(c4ccc(Cl)cc4)CC3)nc(OCC(F)(F)F)n2)cc1` [Compound 3141], the half-maximal effective concentration (EC50) under setting [3] was determined as 0.11 nM and the 50% effective concentration (EC50) under setting [2] is 0.01 to 10 nM.

Consider `O=C(NCC[C@H](NC(=O)c1ccc(Nc2nc(NC3(c4ccc(Cl)cc4)CC3)nc(OCC(F)(F)F)n2)cc1)C(=O)O)C(=O)NCC1OCCc2ccccc21` (some centres unmarked) [Compound 1341], for which the EC50 under setting [1] is 0.01 to 10 nM.

With `O=C(NC[C@H](NC(=O)c1ccc(Nc2nc(NC3(c4ccc(Cl)cc4)CC3)nc(OCC(F)(F)F)n2)cc1)C(=O)O)C(=O)Nc1cccc(-c2ccc(Cl)cc2)c1` [Compound 3775], the EC50 under setting [4] fell in the range of 0.01 to 10 nM.

Regarding `O=C(Nc1nccs1)C(=O)N1CCCC(CNC(=O)c2ccc(Nc3nc(NC4(c5ccc(Cl)cc5)CC4)nc(OCC(F)(F)F)n3)cc2)C1` (centres unmarked) [Compound 3487], under setting [2], the EC50 was 0.01 to 10 nM.

As for `O=C(NCC[C@H](NC(=O)c1ccc(Nc2nc(NC3(c4ccc(Cl)cc4)CC3)nc(OCC(F)(F)F)n2)cc1)C(=O)O)C(=O)NC1CCC(O)CC1` (some centres unmarked) [Compound 1118], the EC50 under setting [1] is 0.01 to 10 nM.

As to `O=C(NC[C@H](NC(=O)c1ccc(Nc2nc(NC3(c4ccc(Cl)cc4)CC3)nc(OCC(F)(F)F)n2)cc1)C(=O)O)C(=O)Nc1cccc(-c2ncc[nH]2)c1` [Compound 3765], the EC50 reads like this: (Huh-7, 48 h, HCV pseudoparticles, Huh7 cells, luciferase 2 days after infection, average of duplicates) 0.68 nM; under setting [4], 0.01 to 10 nM.

As to `COC(=O)[C@H](CCNC(=O)C(=O)Nc1ccccc1F)NC(=O)c1ccc(Nc2nc(NC3(c4ccc(Cl)cc4)CC3)nc(OCC(F)(F)F)n2)cc1` [Compound 1231], the EC50 under setting [1] fell in the range of 0.01 to 10 nM.

Consider `COC(=O)[C@H](CNC(=O)C(=O)NCCc1ccc(F)cc1)NC(=O)c1ccc(Nc2nc(NC3(c4ccc(Cl)cc4)CC3)nc(OCC(F)(F)F)n2)cc1` [Compound 1292], for which, under setting [1], the EC50 lay in the range of 0.01 to 10 nM.

For `O=C(NC[C@H](NC(=O)c1ccc(Nc2nc(NC3(c4ccc(Cl)cc4)CC3)nc(OCC(F)(F)F)n2)cc1)C(=O)O)C(=O)Nc1ccc(N2CCOCC2)nc1` [Compound 3759], the EC50 under setting [4] fell in the range of 0.01 to 10 nM.

Turning to `CCN(CC)CCNC(=O)c1ccc(NC(=O)C(=O)NCC[C@H](NC(=O)c2ccc(Nc3nc(NC4(c5ccc(Cl)cc5)CC4)nc(OCC(F)(F)F)n3)cc2)C(=O)OC)cc1` [Compound 3117], the EC50 under setting [2] lay in the range of 0.01 to 10 nM.

In the case of `COC(=O)[C@H](CCNC(=O)C(=O)Nc1cccc(-c2nnnn2C)c1)NC(=O)c1ccc(Nc2nc(NC3(c4ccc(Cl)cc4)CC3)nc(OCC(F)(F)F)n2)cc1` [Compound 3607], the EC50 under setting [4] lay in the range of 0.01 to 10 nM.

Consider `C[C@H](NC(=O)C(=O)NCC[C@H](NC(=O)c1ccc(Nc2nc(NC3(c4ccc(Cl)cc4)CC3)nc(OCC(F)(F)F)n2)cc1)C(=O)O)C1CCCCC1` [Compound 1212], for which the EC50 is 0.07 nM (Huh-7, 48 h, HCV pseudoparticle infection of Huh7 cells, luciferase 2 days after infection, average of duplicates) and 0.01 to 10 nM under setting [1].

As to `O=C(NCCCN(CCO)C(=O)C(=O)N1CCCCC1)c1ccc(Nc2nc(NC3(c4ccc(Cl)cc4)CC3)nc(OCC(F)(F)F)n2)cc1` [Compound 3509], the EC50 under setting [2] fell in the range of 0.01 to 10 nM.

On to `COC(=O)[C@H](CNC(=O)C(=O)Nc1cccc(S(=O)(=O)N2CCCCC2)c1)NC(=O)c1ccc(Nc2nc(NC3(c4ccc(Cl)cc4)CC3)nc(OCC(F)(F)F)n2)cc1` [Compound 3717], for which the EC50 under setting [4] is 0.01 to 10 nM.

On to `COC(=O)[C@H](CCNC(=O)C(=O)NCc1cccc(F)c1)NC(=O)c1ccc(Nc2nc(NC3(c4ccc(Cl)cc4)CC3)nc(OCC(F)(F)F)n2)cc1` [Compound 1139], for which the EC50 under setting [1] is 0.01 to 10 nM.

`COC(=O)[C@H](CNC(=O)C(=O)Nc1ccc(-n2ccnc2C)cc1)NC(=O)c1ccc(Nc2nc(NC3(c4ccc(Cl)cc4)CC3)nc(OCC(F)(F)F)n2)cc1` [Compound 3203]: the EC50 was 5.47 nM under setting [3] and 0.01 to 10 nM under setting [2].

As for `O=C(NCC[C@H](NC(=O)c1ccc(Nc2nc(NC3(c4ccc(Cl)cc4)CC3)nc(OCC(F)(F)F)n2)cc1)C(=O)O)C(=O)NCc1cc(F)ccc1F` [Compound 1189], the EC50 under setting [1] fell in the range of 0.01 to 10 nM.

Take `Cc1nc(-c2ccc(NC(=O)C(=O)NCCC(NC(=O)c3ccc(Nc4nc(NC5(c6ccc(Cl)cc6)CC5)nc(OCC(F)(F)F)n4)cc3)C(=O)O)cc2)cs1` (centres unmarked) [Compound 3528]: the EC50 under setting [2] is 0.01 to 10 nM.

On to `COc1ccc(CCNC(=O)C(=O)NCC[C@H](NC(=O)c2ccc(Nc3nc(NC4(c5ccc(Cl)cc5)CC4)nc(OCC(F)(F)F)n3)cc2)C(=O)O)cc1` [Compound 1331], for which the EC50 under setting [1] is 0.01 to 10 nM.

As to `CC(C)(C)c1cccc(NC(=O)C(=O)NCC[C@H](NC(=O)c2ccc(Nc3nc(NC4(c5ccc(Cl)cc5)CC4)nc(OCC(F)(F)F)n3)cc2)C(=O)O)c1` [Compound 3629], the EC50 under setting [4] was in the range of 0.01 to 10 nM.

On to `COc1ccc(NC(=O)C(=O)NCC(C)(C)CNC(=O)c2ccc(Nc3nc(NC4(c5ccc(Cl)cc5)CC4)nc(OCC(F)(F)F)n3)cc2)cc1` [Compound 3007], for which the EC50 under setting [2] is 0.01 to 10 nM.

Regarding `O=C(NCC[C@H](NC(=O)c1ccc(Nc2nc(NC3(c4ccc(Cl)cc4)CC3)nc(OCC(F)(F)F)n2)cc1)C(=O)O)C(=O)Nc1ccc(OCCN2CCCCC2)nc1` [Compound 3661], the EC50 under setting [4] lay within 0.01 to 10 nM.

For `O=C(NCC1CC1)C(=O)NC1CCCC1CNC(=O)c1ccc(Nc2nc(NC3(c4ccc(Cl)cc4)CC3)nc(OCC(F)(F)F)n2)cc1` (centres unmarked) [Compound 1462], the EC50 under setting [1] is 0.01 to 10 nM.

As for `CC1CCCC(NC(=O)C(=O)NCC[C@H](NC(=O)c2ccc(Nc3nc(NC4(c5ccc(Cl)cc5)CC4)nc(OCC(F)(F)F)n3)cc2)C(=O)O)C1` (some centres unmarked) [Compound 1125], the half-maximal effective concentration (EC50) under setting [1] fell in the range of 0.01 to 10 nM.

In the case of `CC(C)(C)OC(=O)N1CCC(NC(=O)C(=O)NC[C@H](NC(=O)c2ccc(Nc3nc(NC4(c5ccc(Cl)cc5)CC4)nc(OCC(F)(F)F)n3)cc2)C(=O)O)CC1` [Compound 1079], under setting [1], the half-maximal effective concentration (EC50) fell in the range of 0.01 to 10 nM.

As to `Cc1cc(NC(=O)C(=O)N2CCCC(CNC(=O)c3ccc(Nc4nc(NC5(c6ccc(Cl)cc6)CC5)nc(OCC(F)(F)F)n4)cc3)C2)no1` (centres unmarked) [Compound 3486], the EC50 was 0.32 nM under setting [3] and 0.01 to 10 nM under setting [2].

Regarding `O=C(NCCc1c[nH]cn1)C(=O)NCC[C@H](NC(=O)c1ccc(Nc2nc(NC3(c4ccc(Cl)cc4)CC3)nc(OCC(F)(F)F)n2)cc1)C(=O)O` [Compound 1339], the EC50 under setting [1] lay in the range of 0.01 to 10 nM.

For the molecule `CNC(=O)CCc1ccc(NC(=O)C(=O)NCC(C)(C)CNC(=O)c2ccc(Nc3nc(NC4(c5ccc(Cl)cc5)CC4)nc(OCC(F)(F)F)n3)cc2)cc1` [Compound 3025], under setting [2], the EC50 is 0.01 to 10 nM.

In the case of `CCc1cccc(NC(=O)C(=O)NCC[C@H](NC(=O)c2ccc(Nc3nc(NC4(c5ccc(Cl)cc5)CC4)nc(OCC(F)(F)F)n3)cc2)C(=O)O)c1` [Compound 3614], the half-maximal effective concentration (EC50) under setting [4] was 0.01 to 10 nM.

In the case of `COC(=O)[C@H](CNC(=O)C(=O)Nc1ccn(C)n1)NC(=O)c1ccc(Nc2nc(NC3(c4ccc(Cl)cc4)CC3)nc(OCC(F)(F)F)n2)cc1` [Compound 1244], the EC50 under setting [1] lay within 0.01 to 10 nM.

For `COC(=O)C(NC(=O)c1ccc(Nc2nc(NC3(c4ccc(Cl)cc4)CC3)nc(OCC(F)(F)F)n2)cc1)C1CCCN(C(=O)C(N)=O)C1` (centres unmarked) [Compound 1017, methyl 2-(1-(2-amino-2-oxoacetyl)piperidin-3-yl)-2-(4-(4-(1-(4-chlorophenyl)cyclopropylamino)-6-(2,2,2-trifluoroethoxy)-1,3,5-triazin-2-ylamino)benzamido)acetate], the EC50 under setting [1] was 0.01 to 10 nM.

As for `COc1ccc(NC(=O)C(=O)NCC[C@H](NC(=O)c2ccc(Nc3nc(NC4(c5ccc(Cl)cc5)CC4)nc(OCC(F)(F)F)n3)cc2)C(=O)O)cc1` [Compound 1274], the concentration for a half-maximal effect (EC50) under setting [1] lay within 0.01 to 10 nM.

As to `COC(=O)[C@H](CNC(=O)C(=O)Nc1cccc(C(C)C)c1)NC(=O)c1ccc(Nc2nc(NC3(c4ccc(Cl)cc4)CC3)nc(OCC(F)(F)F)n2)cc1` [Compound 3702], the 50% effective concentration (EC50) under setting [4] is 0.01 to 10 nM.

On to `COC(=O)[C@H](CCNC(=O)C(=O)Nc1cccc(-n2cnnc2)c1)NC(=O)c1ccc(Nc2nc(NC3(c4ccc(Cl)cc4)CC3)nc(OCC(F)(F)F)n2)cc1` [Compound 3605], for which the EC50 under setting [4] was in the range of 0.01 to 10 nM.

Turning to `O=C(NC[C@H](NC(=O)c1ccc(Nc2nc(NC3(c4ccc(Cl)cc4)CC3)nc(OCC(F)(F)F)n2)cc1)C(=O)O)C(=O)Nc1cccnc1` [Compound 1367], the EC50 under setting [1] was in the range of 0.01 to 10 nM.

Consider `COC(=O)[C@@H](CCNC(=O)C(=O)Nc1cccc(-c2ccnc(C)n2)c1)NC(=O)c1ccc(Nc2nc(NC3(c4ccc(Cl)cc4)CC3)nc(OCC(F)(F)F)n2)cc1` [Compound 3583], for which the EC50 under setting [2] lay within 0.01 to 10 nM.

As to `O=C(NC[C@H](NC(=O)c1ccc(Nc2nc(NC3(c4ccc(Cl)cc4)CC3)nc(OCC(F)(F)F)n2)cc1)C(=O)Cl)C(=O)Nc1cccc(-c2c[nH]cn2)c1` [Compound 3787], under setting [4], the EC50 was in the range of 0.01 to 10 nM.

In the case of `O=C(NC[C@H](NC(=O)c1ccc(Nc2nc(NC3(c4ccc(Cl)cc4)CC3)nc(OCC(F)(F)F)n2)cc1)C(=O)O)C(=O)NC1(C2CCCCC2)CC1` [Compound 1472], under setting [1], the EC50 was in the range of 0.01 to 10 nM.
